This passage reports Kd results from ChEMBL document CHEMBL1144349, “A shape-based 3-D scaffold hopping method and its application to a bacterial protein-protein interaction” (J Med Chem, 2005).

The assay is described as follows: Affinity for bacterial ZipA-FtsZ protein-protein interaction. More on the design: species or system Escherichia coli.

For orientation: Kd means the free concentration of one partner at which half of the binding sites on the other are occupied at equilibrium, for simple one-to-one binding. With `CC(=O)Nc1cccc(-c2ccc3nnc(-c4ccccc4)n3n2)c1`, the affinity, expressed as Kd, was 73.9 µM.
In the case of `CC(=O)N(C)c1cccc(-c2ccc3nnc(-c4cccnc4)n3n2)c1` it was 85.1 µM.
